Data taken from publication PMC3977315 (2010).

Experiments:
[1] = tested on: poly(dA)•2poly(dT) (DNA, polymer) A/T; test: fluorescent intercalator displacement; details: thiazole orange displaced
[2] = tested on: poly(dA)•2poly(dT) (DNA, polymer) A/T; test: UV melting; details: K+ 150 mM, 10 mM sodium cacodylate, pH 6.8, rdb 1.67
[3] = tested on: poly(dA)•poly(dT) (DNA, polymer) A/T; test: fluorescent intercalator displacement; details: K+ 150 mM; Na+ 10 mM; thiazole orange not displaced; highest concentration 10 mM
[4] = tested on: poly(dA)•2poly(dT) (DNA, polymer) A/T; test: calorimetric/spectroscopic thermodynamic profile; details: K+ 150 mM; 10 mM sodium cacodylate, 0.5 mM EDTA, pH 5.5, 20 °C

For `NC[C@H]1O[C@H](O[C@H]2[C@H](O[C@@H]3O[C@H](CO)[C@@H](O)[C@H]3O)[C@@H](O)[C@H](N)C[C@@H]2N)[C@H](N)[C@@H](O)[C@@H]1O`, which binding [1] is on record?
Its binding is “weak”.

`NC[C@H]1O[C@H](O[C@H]2[C@H](O)[C@@H](O)[C@H](N)C[C@@H]2N)[C@H](N)[C@@H](O)[C@@H]1O` was tested. Which binding [2] did it give?
The binding was “weak”.

Which ΔTm3→2 ([2]; 25 μM neomycin, per base) does the source give for `NC[C@@H]1O[C@H](O[C@H]2[C@@H](O)[C@H](O[C@@H]3[C@@H](O)[C@H](N)C[C@H](N)[C@H]3O[C@H]3O[C@H](CN)[C@@H](O)[C@H](O)[C@H]3N)O[C@@H]2CO)[C@H](N)[C@@H](O)[C@@H]1O` here?
The ΔTm3→2 was ~ 25 °C.

What about the AC50 [3] of the same compound?
Its AC50 is over 10 mM.

And the “KT(20°C)” value [4]?
The value was “(2.4±0.1)×10^5 M^−1”.
